In EP4768479A1 (Hubei Bio-Pharmaceutical Industrial Technological Institute …, priority 2023, dated 2025) one finds IC50 data, which are given here for ten compounds.

For this test, the target named is T1, AT2R (Homo sapiens, UniProt P50052).
T1 construct: purchased Cisbio #C1TT1AT2
T1 sequence (P50052 1-363): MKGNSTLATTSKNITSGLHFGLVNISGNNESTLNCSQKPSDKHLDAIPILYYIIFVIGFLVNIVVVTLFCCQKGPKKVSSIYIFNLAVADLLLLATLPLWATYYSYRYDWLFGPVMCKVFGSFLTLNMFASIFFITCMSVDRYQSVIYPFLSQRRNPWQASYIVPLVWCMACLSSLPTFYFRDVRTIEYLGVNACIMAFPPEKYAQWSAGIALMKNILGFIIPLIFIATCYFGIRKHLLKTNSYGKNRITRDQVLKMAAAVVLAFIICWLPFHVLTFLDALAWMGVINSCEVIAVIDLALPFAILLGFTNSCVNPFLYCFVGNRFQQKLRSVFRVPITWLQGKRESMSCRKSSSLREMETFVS
Kind of test: Binding assay of compounds to AT2R (Tag-lite HTRF ligand binding kit). On the procedure:
The assay was performed in accordance with the manufacturer instructions of Angiotensin AT2 Receptor Ligand Binding Assay Kit (#C1TT1AT2, Cisbio). First, a 10 mM compound stock solution was diluted in a gradient at a 5× dilution ratio (including 10 concentrations, each with two replicates). 160 nL of compounds at different concentrations was added to a 384-well plate. 40 µL of 1× TLB (TLB: Tag-lite buffer) was added to each well, and the mixture was shaken at room temperature for 15 minutes. A 15 mL centrifuge tube added with 5 mL of 1×TLB was prepared in advance. The frozen labeled cells were thawed in a water bath at 37°C (for 1 to 2 minutes), and the thawed cells were quickly transferred to the above 15 mL centrifuge tube. The mixture was mixed well and centrifuged at 1,000 g at room temperature for 5 minutes. The supernatant was removed, and the cells were resuspended by adding 2.7 mL 1× TLB. A new 384-well plate was taken, and 10 µL of mixed cells were added into the corresponding wells according to the assay design. 5 µL of 4× compound solution and 5 µL of 4× Tag-lite red fluorescent labeled ligand were added to each well. After incubation at room temperature for 1 hour, data were read using EnVision with an HTRF mode. The […] at 665nM and 615nM in each well were read respectively, and the ratio was calculated (Ratio=A665nM/B615nM). The IC50 value was calculated by means of GraphPad Prism8 software, where X represents logarithmic value of compound concentration; and Y represents ratio of A665nM/B615nM.
Background: TR-FRET usually uses a lanthanide donor and a delayed reading to cut background.

One may read the IC50 as the concentration needed to halve the response being measured. Read a low IC50 as higher potency. As to `COC(=O)NS(=O)(=O)c1sc(CC(C)C)c(F)c1-c1ccc(Cn2ccnc2Cl)cc1` [Compound I-1, Methyl ((3-(4-((2-chloro-1H-imidazol-1-yl)methyl)phenyl)-4-fluoro-5-isobutylthiophen-2-yl)sulfonyl) carbamate], the IC50 turned out to be 6.67 nM.

`COC(=O)NS(=O)(=O)c1sc(CC(C)C)c(F)c1-c1ccc(Cn2ccnc2C(F)(F)F)cc1` [Compound I-2, Methyl ((4-fluoro-5-isobutyl-3-(4-((2-(trifluoromethyl)-1H-imidazol-1-yl)methyl)phenyl)thiophen-2-yl)sulfonyl) carbamate] had a half-inhibitory concentration (IC50) of 6.56 nM.

`CCCCOC(=O)NS(=O)(=O)c1sc(CC(C)C)c(F)c1-c1ccc(Cn2ccnc2C(C)(C)O)cc1` [Compound I-3, Butyl ((4-fluoro-3-(4-((2-(2-hydroxypropan-2-yl)-1H-imidazol-1-yl)methyl)phenyl)-5-isobutylthiophen-2-yl)sulfonyl)carbamate] gave an IC50 of 3.21 nM.

`CCCCOC(=O)NS(=O)(=O)c1sc(CC(C)C)c(F)c1-c1ccc(Cn2ccnc2C(F)(F)F)cc1` [Compound I-4, Butyl ((4-fluoro-5-isobutyl-3-(4-((2-(trifluoromethyl)-1H-imidazol-1-yl)methyl)phenyl)thiophen-2-yl)sulfonyl)carbamate] came in with an IC50 of 3.46 nM.

Take `Cc1c(CC(C)C)sc(S(=O)(=O)NC(=O)OC[C@H](C)O)c1-c1ccc(Cn2ccnc2C(F)(F)F)cc1` [Compound I-11, (2S)-2-hydroxypropyl ((5-isobutyl-4-methyl-3-(4-((2-(trifluoromethyl)-1H-imidazol-1-yl)methyl)phenyl)thiophen-2-yl)sulfonyl)carbamate]: the half-inhibitory concentration (IC50) amounted to 4.49 nM.

Turning to `Cc1c(CC(C)C)sc(S(=O)(=O)NC(=O)OC[C@@H](C)O)c1-c1ccc(Cn2ccnc2C(F)(F)F)cc1` [Compound I-12, (2R)-2-hydroxypropyl ((5-isobutyl-4-methyl-3-(4-((2-(trifluoromethyl)-1H-imidazol-1-yl)methyl)phenyl)thiophen-2-yl)sulfonyl)carbamate], the half-maximal inhibitory concentration (IC50) was 3.88 nM.

`Cc1c(CC(C)C)sc(S(=O)(=O)NC(=O)OC[C@H](C)O)c1-c1ccc(Cn2ccnc2Cl)cc1` [Compound I-16, (2S)-2-hydroxypropyl ((3-(4-((2-chloro-1H-imidazol-1-yl)methyl)phenyl)-4-methyl-5-isobutylthiophen-2-yl)sulfonyl)carbamate]: the IC50 came out at 4.49 nM.

With `Cc1c(CC(C)C)sc(S(=O)(=O)NC(=O)OC[C@@H](C)O)c1-c1ccc(Cn2ccnc2Cl)cc1` [Compound I-17, (2R)-2-hydroxypropyl ((3-(4-((2-chloro-1H-imidazol-1-yl)methyl)phenyl)-4-methyl-5-isobutylthiophen-2-yl)sulfonyl)carbamate], the IC50 is 3.88 nM.

With `Cc1c(CC(C)C)sc(S(=O)(=O)NC(=O)OCCO)c1-c1ccc(Cn2ccnc2Cl)cc1` [Compound I-18, 2-hydroxyethyl ((3-(4-((2-chloro-1H-imidazol-1-yl)methyl)phenyl)-5-isobutyl-4-methylthiophen-2-yl)sulfonyl)carbamate], the IC50 stood at 3.52 nM.

`Cc1c(CC(C)C)sc(S(=O)(=O)NC(=O)NCc2ccccn2)c1-c1ccc(Cn2ccnc2C(F)(F)F)cc1` [Compound I-24] came in with a 50% inhibitory concentration (IC50) of 4.41 nM.
